Patent EP0280610B1, “Dipeptides, preparation process and use in dosing proteases” (SERBIO, priority 1987, dated 1992)

Tests used:
plasmine humaine = assay: Hydrolysis rate of chromogenic substrates by human plasmin (pNA release, OD at 405 nm); format: biochemical; conditions: compared with reference product A3; underlying results expressed in ΔOD/minute at 405 nm, TEA buffer pH 8,4
Description: (§1) L'activité des dipeptides suivant l'invention et des tripeptides consignés dans le tableau I a été étudiée sur la thrombine humaine, la plasmine humaine, le Facteur Xa humaine et la Protéine C bovine, les tripeptides A1-A4 étant les substrats de référence du commerce. La libération du marquer HR₁ (i.e. amine H₂NRʹ₁), qui est objectivée par la variation de OD pendant l'hydrolyse enzymatique des substrats, sert d'outil de comparaison.
(§2) La lecture de OD est en général effectuée à 300-470 nm, et plus précisément à 405 nm quand R₁ est pNA, pendant environ 5 minutes.
(§3) Les essais ont été réalisés sur appareil GILFORD 203 S pour automatiser la lecture des échantillons et standardiser leur traitement.
(§4) On prépare des solutions dans du sérum physiologique renfermant chacune un enzyme : thrombine humaine 3 UNIH/ml Facteur Xa humain 3,7 nkat/ml plasmine humaine 2,3 nkat/ml protéine C bovine activée 10µg/ml
(§5) On dissout chaque peptide à tester dans le l'eau à une concentration de 10 mg/ml.
(§6) 400 µl d'enzyme dilué au 1/2 dans du tampon TEA (pH 8,4) sont ajoutés à 200 µl de chacun des différents peptides à tester. On détermine les vitesses d'hydrolyse desdits substrats en suivant l'évolution de la libération de pNA. Cette évolution peut être suivie par la lecture de la varition de OD par unité de temps (ΔOD/minute) à 405 nm.

Protéine C bovine = assay: Hydrolysis rate of chromogenic substrates by activated bovine protein C (pNA release, OD at 405 nm); format: biochemical; conditions: compared with reference product A4; underlying results expressed in ΔOD/minute at 405 nm, TEA buffer pH 8,4
Description: as §1, §2, §3, §4, §5, §6

Substance: MM-L-4Hyp-L-Arg-pNA, H-TFA [EX 10]
- sensibilité à la plasmine (plasmine humaine): plus sensible à la plasmine que le produit de référence A3
- sensibilité à la protéine C (Protéine C bovine): plus sensibles à la protéine C que le produit de référence A4
